Experimental data taken from patent publication US20090155387A1, “STABLE PHARMACEUTICAL COMPOSITION COMPRISING BETA-LACTAM ANTIBIOTIC AND ION-CHELATING AGENT” (priority 2006, published 2009).
Entries after “also recorded” stand apart in the source; their conditions may differ. Blank lines part the entries; values can stand above or below the molecule they belong to.

Tests used:
[1] = Amounts of β-lactam antibiotic, β-lactamase inhibitor and aminoglycoside antibiotic in solution over time (reverse-phase LC/HPLC); assay type: physicochemical
Procedure: The amounts of β-lactam antibiotics and β-lactamase inhibitor were determined using C18 reverse-phase LC and UV-VIS detector (Tianjin […] Co., Ltd., analysis method No. HM-K-03). The content of aminoglycoside antibiotics was measured using reverse-phase HPLC and evaporation-light-scattering detector (ELSD detector) (Tianjin […] Co., Ltd., analysis method No. HM-K-08). The amount of antibiotic component at each time point was expressed as a percentage with respect to the amount at the initial time. The relative amount of each antibiotic component in the composition at each time point was expressed as peak area ratio with respect to the corresponding peak area of an external standard.

[2] = HIAC light obscuration test (USP 788), particle content of solution preparations; assay type: physicochemical; conditions: HIAC test results, composition in the form of a liquid solution
Procedure: Light obscuration testing was performed for solution preparations prepared with some of the compositions described in the examples according to the method described in the United States Pharmacopeia (USP 788) using HIAC-3000 light obscuration detector. Particle content is denoted by the number of particles per milliliter of solution. The value is an average of two measurements. Samples were tested at 1 hour and at 20 hours.

amount (percentage of initial amount) ([1]; in Example 11 solution (pH 6.0) from freeze-dried powder stored 7 days at 0° C., redissolved, 0 h): 97.11%
amount (percentage of initial amount) ([1]; in Example 11 solution (pH 6.0) from freeze-dried powder stored 7 days at 0° C., redissolved, 1 h): 90.83%
amount (percentage of initial amount) ([1]; in Example 11 solution (pH 6.0) from freeze-dried powder stored 7 days at 0° C., redissolved, 2 h): 98.18%
amount (percentage of initial amount) ([1]; in Example 11 solution (pH 6.0) from freeze-dried powder stored 7 days at 0° C., redissolved, 4 h): 93.69%
amount (percentage of initial amount) ([1]; in Example 11 solution (pH 6.0) from freeze-dried powder stored 7 days at 0° C., redissolved, 6 h): 91.23%
amount (percentage of initial amount) ([1]; in Example 11 solution (pH 6.0) from freeze-dried powder stored 7 days at 0° C., redissolved, 8 h): 94.39%
amount (percentage of initial amount) ([1]; in Example 17 solution, pH 6.5, room temperature, 0 h): 116.6%
amount (percentage of initial amount) ([1]; in Example 17 solution, pH 6.5, room temperature, 1 h): 94.83%
amount (percentage of initial amount) ([1]; in Example 17 solution, pH 6.5, room temperature, 2 h): 91.86%
amount (percentage of initial amount) ([1]; in Example 17 solution, pH 6.5, room temperature, 4 h): 91.96%
amount (percentage of initial amount) ([1]; in Example 17 solution, pH 6.5, room temperature, 6 h): 91.52%
amount (percentage of initial amount) ([1]; in Example 17 solution, pH 6.5, room temperature, 8 h): 98.56%
amount (percentage of initial amount) ([1]; in Example 18 solution (2.5% fructose), pH 6.5, room temperature, 0 h): 96.48%
amount (percentage of initial amount) ([1]; in Example 18 solution (2.5% fructose), pH 6.5, room temperature, 1 h): 95.90%
amount (percentage of initial amount) ([1]; in Example 18 solution (2.5% fructose), pH 6.5, room temperature, 2 h): 71.70%
amount (percentage of initial amount) ([1]; in Example 18 solution (2.5% fructose), pH 6.5, room temperature, 4 h): 91.78%
amount (percentage of initial amount) ([1]; in Example 18 solution (2.5% fructose), pH 6.5, room temperature, 6 h): 93.08%
amount (percentage of initial amount) ([1]; in Example 18 solution (2.5% fructose), pH 6.5, room temperature, 8 h): 97.69%
Molecule: CC1(C)S[C@@H]2[C@H](NC(=O)[C@H](NC(=O)N3CCN(S(C)(=O)=O)C3=O)c3ccccc3)C(=O)N2[C@H]1C(=O)O [Mezlocillin sodium]

amount (percentage of initial amount) ([1]; in Example 10 solution, pH 6.5, room temperature, 0 h): 92.06%
amount (percentage of initial amount) ([1]; in Example 10 solution, pH 6.5, room temperature, 1 h): 99.84%
amount (percentage of initial amount) ([1]; in Example 10 solution, pH 6.5, room temperature, 2 h): 99.73%
amount (percentage of initial amount) ([1]; in Example 10 solution, pH 6.5, room temperature, 4 h): 98.64%
amount (percentage of initial amount) ([1]; in Example 10 solution, pH 6.5, room temperature, 6 h): 94.27%
amount (percentage of initial amount) ([1]; in Example 10 solution, pH 6.5, room temperature, 8 h): 96.48%
amount (percentage of initial amount) ([1]; in Example 25 solution, pH 6.75, room temperature, 0 h): 100.9%
amount (percentage of initial amount) ([1]; in Example 25 solution, pH 6.75, room temperature, 1 h): 104.6%
amount (percentage of initial amount) ([1]; in Example 25 solution, pH 6.75, room temperature, 2 h): 100.1%
amount (percentage of initial amount) ([1]; in Example 25 solution, pH 6.75, room temperature, 4 h): 81.34%
amount (percentage of initial amount) ([1]; in Example 25 solution, pH 6.75, room temperature, 6 h): 103.7%
amount (percentage of initial amount) ([1]; in Example 25 solution, pH 6.75, room temperature, 8 h): 102.2%
Molecule: CO/N=C(\C(=O)N[C@@H]1C(=O)N2C(C(=O)O)=C(CSc3nc(C)c(CC(=O)O)s3)CS[C@H]12)c1csc(N)n1 [Cefodizime sodium]

amount (percentage of initial amount) ([1]; in Example 5 solution, pH 6.75, room temperature, 0 h): 101.7%
amount (percentage of initial amount) ([1]; in Example 5 solution, pH 6.75, room temperature, 1 h): 104.2%
amount (percentage of initial amount) ([1]; in Example 5 solution, pH 6.75, room temperature, 2 h): 96.1%
amount (percentage of initial amount) ([1]; in Example 5 solution, pH 6.75, room temperature, 4 h): 100.1%
Molecule: Gentamicin

Molecule: O=C(O)CN(CCN(CC(=O)O)CC(=O)O)CC(=O)O [EDTA, ethylenediamine tetraacetic acid]
effect on aggregate particle formation in solution preparations [2]: can significantly reduce aggregate particle formation; also recorded: effective in inhibiting formation of aggregate particles
